The source of these data is patent US9763939B2, “Compositions and methods for treating mitochondrial diseases” (BIOVISTA, INC., priority 2012, dated 2017).

For data set [1] the following is noted: too lipophillic; cannot reach the mitochondria (Edeas M. Pharm Res. 2011); cited from earlier work.
The test system of data set [2] is human primary fibroblasts from patients suffering from Friedreich's ataxia. As to the kind of experiment: cells. How it is done:
(§1) EXAMPLE. […] Briefly, primary human fibroblasts from patients suffering from Friedreich's ataxia and LHON are lesioned with 100 μM BSO (LHON fibroblasts) or 250 μM BSO (FRDA fibroblasts) respectively, for 48 hours. Apoptosis, toxicity and viability rate of cells are determined using the ApoTox-Glo-Kit (Promega): the reagent for assessing viability and toxicity is applied 1:5 into treatment medium and incubated for 30 min at 37° C. Next, fluorescence is measured at the following wavelength sets: 400EX/505EM (viability) and 485EX/520EM (toxicity). In case of apoptosis measurement the caspase reagent was added 1:2 and incubated at RT for 30 min, the caspase activity (apoptosis) was measured as luminescence
(§2) EXAMPLE. Evaluation of Tetracyclic Pyrazinoindoles, and Pharmaceutically Acceptable Salts Thereof. One or more tetracyclic pyrazinoindoles are applied 2 and 24 hours before BSO treatment and are present throughout the assay. An optional reference compound, such as idebenone may be included for comparison. BSO treated cells without any treatment (BSO group) as well as cells neither treated with BSO nor with any treatment (Vehicle Control (VC) group) serve as controls. Cells are assessed for apoptosis, toxicity and viability immediately after BSO lesion by means of the ApoTox-Glo-assay Kit (Promega). Three independent experiments in four technical replicates are performed for all groups as depicted in Table 1 (different tetracyclic pyrazinoindoles are labeled as Test Items (T.I.1-T.I.2) and an optional positive control Reference Item 1 (R.I.1)):
(§3) BSO generally reduces a cell's protection against oxidative damage. Cells harvested from FRDA and LHON patients generate higher levels of ROS than normal cells. Apoptosis, toxicity and viability rate of cells are determined using the ApoTox-Glo-Kit (Promega): the reagent for assessing viability and toxicity is applied 1:5 into treatment medium and incubated for 30 min at 37° C. Next, fluorescence is measured at the following wavelength sets: 400EX/505EM (viability) and 485EX/520EM (toxicity). In case of apoptosis measurement the caspase reagent is added 1:2 and incubated at RT for 30 min, the caspase activity (apoptosis) was measured as luminescence
(§4) Descriptive statistical analysis was performed. Data are presented as mean±standard error of mean (SEM) in percent of vehicle control, MPP+ lesion and BSO lesion, respectively. Differences between compound-treated groups and controls (vehicle, BSO) are evaluated by means of One-Way ANOVA.
EXAMPLE. […] One vial is thawed and administered 2 and 24 hours before BSO treatment, at concentrations 0.6 μM, 1.8 μM, 5.5 μM and 16 μM. Apoptosis, toxicity and viability rate of cells are determined using the ApoTox-Glo-Kit (Promega). Human primary fibroblasts from patients suffering from Friedreich's ataxia are used. Three independent experiments in four technical replicates are performed for all groups. […] Statistical significance is indicated by NS=not significant p>0.1, *=p<0.05, **=p<0.01, ***=p<0.001 as determined by One-Way ANOVA. Data are shown as group mean+/−SEM.
EXAMPLE. Tetrindole is diluted in DMSO. One vial is thawed and administered 2 and 24 hours before BSO treatment, at concentrations 0.2 μM, 0.6 μM, 1.8 μM and 5.5 μM. Apoptosis, toxicity and viability rate of cells are determined using the ApoTox-Glo-Kit (Promega). Human primary fibroblasts from patients suffering from Friedreich's ataxia are used. Three independent experiments in four technical replicates are performed for all groups. […] Statistical significance is indicated by NS=not significant p>0.1, *=p<0.05, **=p<0.01, ***=p<0.001 as determined by One-Way ANOVA. Data are shown as group mean+/−SEM.

Data set [3] concerns human primary fibroblasts from patients suffering from LHON. As to the kind of experiment: cells. How it is done:
as §1, §2, §3, §4
EXAMPLE. […] One vial is thawed and administered 2 and 24 hours before BSO treatment, at concentrations 0.6 μM, 1.8 μM, 5.5 μM and 16 μM. Apoptosis, toxicity and viability rate of cells are determined using the ApoTox-Glo-Kit (Promega). Human primary fibroblasts from patients suffering from LHON are used. Three independent experiments in four technical replicates are performed for all groups. […] Statistical significance is indicated by NS=not significant p>0.1, *=p<0.05, **=p<0.01, ***=p<0.001 as determined by One-Way ANOVA. Data are shown as group mean+/−SEM.
EXAMPLE. Tetrindole is diluted in DMSO. One vial is thawed and administered 2 and 24 hours before BSO treatment, at concentrations 0.2 μM, 0.6 μM, 1.8 μM and 5.5 μM. Apoptosis, toxicity and viability rate of cells are determined using the ApoTox-Glo-Kit (Promega). Human primary fibroblasts from patients suffering from LHON are used. Three independent experiments in four technical replicates are performed for all groups. […] Statistical significance is indicated by NS=not significant p>0.1, *=p<0.05, **=p<0.01, ***=p<0.001 as determined by One-Way ANOVA. Data are shown as group mean+/−SEM.

The subject of data set [4] is YG8R FRDA mouse fibroblasts. In words: FAC/BSO oxidative stress insult, cell viability (Presto Blue), YG8R fibroblasts. The class given is cell-based. To be noted: FAC and 1 mM BSO 48 h. As for the experimental part: (§5) EXAMPLE. Primary fibroblast and neuronal stem cell (NSC) cultures from the YG8R FRDA mouse model. The cell cultures are used as a rapid means to test the effectiveness of potential therapies before proceeding to longer-term FRDA mouse model investigations. A parallel assay using YG22R NSCs may be used.
(§6) YG8R fibroblasts and NSCs are treated with increasing concentrations of test compound, and a vehicle-only negative control. Optionally, YG8R fibroblasts and NSCs are treated with a positive control compound, such as 1 μM idebenone. Two hours after the initial treatment, cells are lesioned with […] FAC and 1 mM BSO for 48 hours. Cell viability is then determined using Presto Blue Cell Viability Reagent (Life Technologies) for 24 hours and subsequent colorimetric spectrophotometry. […] Similarly, 1.8 μM tetrindole restored the vehicle-treated FAC/BSO cell viability value of 26% to a value of 53% (p<0.001), relative to the vehicle treated non-insulted cell value as 100%.

The test system of data set [5] is YG8R FRDA mouse neuronal stem cells (NSCs). As to the kind of experiment: FAC/BSO oxidative stress insult, cell viability (Presto Blue), YG8R NSCs. The class given is cell-based. As for the experimental part: as §5, §6
Similarly, 1.8 μM tetrindole restored the vehicle-treated FAC/BSO cell viability value of 19% to a value of 40% (p<0.001), relative to the vehicle treated non-insulted cell value as 100%.

The test system of data set [6] is C57BL/6 mice with MOG-induced EAE. In words: MOG-induced Experimental Allergic Encephalomyelitis (MOG-EAE) mouse model, spinal cord histology. In kind it is in vivo. To be noted: spinal cord H&E histology day 35, pirlindole 30 mg/kg, dexamethasone positive control, dose not given. As for the experimental part:
EXAMPLE. Evaluation of anti-inflammatory and direct protection mode of action. Compounds described herein are evaluated in a standard MOG-induced Experimental Allergic Encephalomyelitis (MOG-EAE) mouse model of neurodegeneration to determine whether the compounds protect neurons directly, or via an indirect anti-inflammatory mode of action. EAE is induced in C57BL/6 mice by the single subcutaneous injection of MOG emulsified in Complete Freund's Adjuvant (CFA) on study days 0 and 6, followed by intraperitoneal supplemental immunostimulation with Pertussis Toxin (PT) carried out once at the time of EAE induction and once again 48 hours later. Test animals are observed for 35 days. Histology samples are harvested from the spinal cords of the animals on day 35 and are stained with Hematoxylin & Eosin (H&E). Analysis of the samples comprises two parameters: a) The Severity Score which refers mainly to infiltration by inflammatory cells and b) White Matter Damage (WMD), which refers mainly to axonal degeneration.

Setting [7] is: Homo sapiens, Fibroblast, 48 h, read-out: protective effect in relative cell viability.

Turning to vitamin E, the “permeation of cell membranes” value in data set [1] was “permeates cell membranes poorly”.
As a reminder, the viability is a read-out of living cells in per cent, often relative to untreated cells. Take `c1cc2c(cc1C1CCCCC1)c1c3n2CCNC3CCC1` (centres unmarked) [tetrindole, 2,3,3a,4,5,6-Hexahydro-8-cyclohexyl-1H-pyrazino[3,2,1-j,k]carbazole]: the viability at 1.8 µM in data set [2] (setting [7]) turned out to be 156%; in data set [3] (setting [7]), 122%; in data set [4] (Mus musculus, Fibroblast, 1.8 μM, vehicle-treated FAC/BSO value 26%, relative to vehicle treated non-insulted cells as 100%, p<0.001), 53%; in data set [5] (Mus musculus, 1.8 μM, vehicle-treated FAC/BSO value 19%, relative to vehicle treated non-insulted cells as 100%, p<0.001) it was 40%. The “statistically significant improvement in apoptosis compared to the BSO group” value in data set [2] (all tested doses) and in data set [3] (all tested doses) was “not observed at any dose” throughout. The “statistically significant overall cytotoxicity over BSO control” value is listed as “not observed at any dose, except the highest dose of 5.5” in data set [2] (human) and “not observed at any dose” in data set [3]. The “statistically significant improvement in viability compared to the BSO group” value in data set [3] (all tested doses) was “not observed at any dose”. In addition, the “protection against the oxidative stress insult” value in data set [4] and in data set [5] was “significantly protect” in each case.
`C[C@@H]1C[C@H]2[C@@H]3CCC4=CC(=O)C=C[C@]4(C)[C@@]3(F)[C@@H](O)C[C@]2(C)[C@@]1(O)C(=O)CO` [dexamethasone]: the “Severity Score (infiltration by inflammatory cells)” value in data set [6] (vehicle 2.85±0.66) stood at 1.45±1.09. Besides, the “White Matter Damage (WMD) percentage (axonal degeneration)” value in data set [6] (vehicle 74.2±26.1) is 24.4±33.3 percentage.
